Assay results as given in patent US20210386689A1, “METHODS OF TREATING CENTRAL NERVOUS SYSTEM DISORDERS” (Sunovion Pharmaceuticals Inc., priority 2018, published 2021).

Key:
clinical [1] = settings: human, in vivo
Method: A randomized, 2-way crossover study to evaluate the effect of dasotraline on the pharmacokinetics (PK) of efavirenz, a sensitive cytochrome P450 2B6 (CYP2B6) substrate, and to assess the safety and tolerability of a single dose of dasotraline given concurrently with efavirenz was conducted.
Methodology: The study enrolled 29 healthy, non-smoking male and female subjects. All subjects were randomized to one of two treatment sequences: (A) Single doses of placebo and 400 mg efavirenz followed 28 days later by single doses of 24 mg dasotraline and 400 mg efavirenz; or (B) Single doses of 24 mg dasotraline and 400 mg efavirenz followed 28 days later by single doses of placebo and 400 mg efavirenz. Dasotraline and placebo were administered 6 hours prior to the planned dosing time of efavirenz. A screening period of approximately 4 weeks was followed by 2 treatment periods, each of which included approximately 78 hours in-clinic confinement followed by 3 outpatient follow-up visits. Dose administration occurred on Day 1 and Day 29. During the first treatment period, subjects were admitted to the clinic on Day −1, the day before first study drug administration (Day 1), and remained in clinic until discharge on Day 3. Subjects returned to the clinic for 3 subsequent visits (Days 5, 7, and 14) for PK sample collection. Following a washout period (consisting of 28 non-dosing days), subjects returned and were readmitted to the clinic for the second treatment period on Day 28, the day before the second study drug administration (Day 29), and remained in clinic until discharge on Day 31. Subjects returned to the clinic for 3 subsequent visits (Days 33, 35, and 42) for PK sample collection. Day 42 was the End of Study visit.
Evaluation: Blood for serial PK sampling was obtained from all subjects prior to efavirenz administration (pre-dose) and at specified time points after efavirenz administration on Days 1 and 29 for each treatment sequence. The recorded times for dasotraline PK plasma sample collections were relative to efavirenz dosing time. The primary parameters for efavirenz analysis were maximum observed plasma concentration (Cmax), time of maximum observed plasma concentration (tmax), area under the concentration-time curve (AUC) from time 0 to time t (AUC0-t), AUC from time 0 to the time of last measurable concentration (AUC0-last), AUC from time 0 extrapolated to infinity (AUC0-inf), terminal elimination rate constant (λZ), apparent terminal elimination half-life (t1/2), apparent total clearance (CL/F), and apparent volume of distribution during the terminal elimination phase (Vz/F). The primary parameters for dasotraline analysis were Cmax, AUC0-last, AUC0-t, and AUC0-inf.
Statistical Methods: All analyses involving PK data (e.g., plasma concentrations, derived PK parameters, assessment of drug-drug interaction) were performed on the PK population. For plasma concentrations of dasotraline and efavirenz, descriptive statistics (e.g., number, arithmetic mean, arithmetic standard deviation, minimum, median, maximum, 25th percentile, 75th percentile, geometric mean, and geometric coefficient of variation) were listed and summarized by time point by treatment for the PK population. Mean plasma concentration-time profiles were plotted by treatment on linear and semi-logarithmic scales. Individual subject linear and semi-logarithmic concentration-time plots, with respective treatments presented together, were included in the appendices.
To evaluate the effect of dasotraline on the PK of efavirenz, a mixed effect analysis of variance (ANOVA) was applied for the primary endpoint on natural log-transformed Cmax, AUC0-last, AUC0-t, and AUC0-inf of efavirenz. The model included treatment, sequence, and period as fixed effects and subject nested within sequence as a random effect. Only subjects who completed both treatment periods were included in the overall ANOVA to allow for an intra-subject comparison to be conducted. […]

clinical [2] = settings: human, in vivo; remark: listed apart in the source
Method: Eight clinical studies—including single dose pharmacokinetic (PK), multiple dose PK, efficacy, safety, and tolerability, human abuse liability, absorption, metabolism, and excretion, and safety, efficacy, and tolerability in adults with attention-deficit hyperactivity disorder—were completed with dasotraline. In those studies, single doses ranging from 0.2 mg to 36 mg and multiple doses from 0.5 mg/day to 8 mg/day for 21 to 56 days were evaluated. Dasotraline was slowly absorbed into the systemic circulation, reaching time of maximum observed plasma concentration (tmax) approximately 10 to 12 hours after single administration of doses ranging from 0.2 to 36 mg. The change in maximum observed plasma concentration (Cmax) with dose was nearly dose proportional for the same doses. […] Dasotraline is extensively metabolized by oxidation and subsequent phase II metabolism. CYP2B6 oxidizes dasotraline to “dasotraline oxime”: […]

CYP2B6 = target: T1, CYP2B6 (Homo sapiens, UniProt P20813); experiment: Inhibition of CYP2B6 activity in human liver microsomes (direct and time-dependent); type: in vitro ADME
T1 construct: measuring the activity of CYP2B6 in human liver microsomes; from tissue; host or cells: human liver microsomes
T1 sequence (P20813 1-491): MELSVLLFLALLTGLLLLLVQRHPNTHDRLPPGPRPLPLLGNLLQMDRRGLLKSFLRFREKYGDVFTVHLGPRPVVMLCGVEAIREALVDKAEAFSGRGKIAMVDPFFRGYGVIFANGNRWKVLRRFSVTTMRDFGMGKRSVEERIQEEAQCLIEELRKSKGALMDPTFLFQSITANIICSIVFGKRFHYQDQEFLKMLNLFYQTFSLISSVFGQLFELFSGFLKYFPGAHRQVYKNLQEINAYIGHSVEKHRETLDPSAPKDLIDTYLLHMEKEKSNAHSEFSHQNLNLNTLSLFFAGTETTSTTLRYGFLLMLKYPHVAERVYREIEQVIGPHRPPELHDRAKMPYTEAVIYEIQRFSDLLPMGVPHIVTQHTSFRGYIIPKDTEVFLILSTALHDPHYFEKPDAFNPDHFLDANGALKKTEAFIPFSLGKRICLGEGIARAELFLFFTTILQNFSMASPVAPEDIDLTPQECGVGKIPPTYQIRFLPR
Method: The inhibitory potency of dasotraline was determined in vitro by measuring the activity of CYP2B6 in human liver microsomes in the presence and absence of dasotraline. […] Furthermore, dasotraline was determined to be a time-dependent inhibitor of CYP2B6 with an apparent inactivation constant of 0.12 μM and a maximal inactivation rate constant of 0.15 min-1. Based on the Food and Drug Administration Draft Guidance: Drug Interaction Studies (February 2012) and the prediction using physiologically-based PK modeling and simulation there is a potential for dasotraline to inhibit the metabolism pathway of CYP2B6 substrates through time-dependent inhibition. Therefore, the effect of dasotraline on the PK of a CYP2B6 substrate (ie, efavirenz) was studied clinically.

O=C1Nc2ccc(Cl)cc2[C@@](C#CC2CC2)(C(F)(F)F)O1 [Efavirenz]
Vd/F (clinical [1]; both sexes): 525 L | Cmax (clinical [1]; both sexes, 400 mg): 1560 ng/mL | Vd/F (clinical [1]; both sexes, 400 mg): 759 L | AUC(0-t) (clinical [1]; both sexes, 400 mg, AUC0-24): 18200 ng·h/mL | AUC(0-inf) (clinical [1]; both sexes, 400 mg, AUC0-inf): 92000 ng·h/mL | AUC(0-t) (clinical [1]; both sexes, 400 mg, AUC0-last): 80400 ng·h/mL | half-life (clinical [1]; both sexes, 400 mg, t1/2): 143 h | Tmax (clinical [1]; both sexes, 400 mg, tmax, median): 3.05 h | AUC(0-t) (clinical [1]; both sexes, Mean AUC from time 0 to 24 hours post-dose (AUC0-24)): 19000 ng·h/mL | half-life (clinical [1]; both sexes, Mean terminal half-life): 143 h | Tmax (clinical [1]; both sexes, Median tmax): 4 h | AUC(0-inf) (clinical [1]; both sexes, mean AUC0-inf): 87900 ng·h/mL | AUC(0-t) (clinical [1]; both sexes, mean AUC0-last): 112000 ng·h/mL | half-life (clinical [1]; both sexes, t1/2): 161 h | Tmax (clinical [1]; both sexes, tmax, median): 4 h | Mean AUC from time 0 to 24 hours post-dose (AUC0-24) (clinical [1]; both): 17,700 h*ng/mL | Mean terminal half-life (clinical [1]; both): 161 h | Median tmax (clinical [1]; both): approximately 3 hours | geometric LS mean ratio for AUC0-24 (clinical [1]; both): 107.5% | geometric LS mean ratio for AUC0-inf (clinical [1]; both): 153.5% | geometric LS mean ratio for AUC0-last (clinical [1]; both): 143.1% | geometric LS mean ratio for Cmax (clinical [1]; both): 98.5% | mean AUC0-inf (clinical [1]; both): 135,000 h*ng/mL | mean AUC0-last (clinical [1]; both): 78,200 h*ng/mL

N[C@@H]1CC[C@@H](c2ccc(Cl)c(Cl)c2)c2ccccc21 [Dasotraline, (1R,4S)-4-(3,4-dichlorophenyl)-1,2,3,4-tetrahydronaphthalen-1-amine]
Tmax (clinical [2]): 10 to 12 h | half-life (clinical [2]): 47.1 to 77 h | Ki (CYP2B6; direct competitive inhibition, read-out: inhibition constant): 220 nM | apparent inactivation constant (CYP2B6; time-dependent inhibition): 0.12 µM | maximal inactivation rate constant (CYP2B6; time-dependent inhibition): 0.15 min⁻¹
